Test: Human HepG2 cell viability assay in 384 well format
Assay type: toxicity, cell-based
Set-up: dose 125 nL, time 70.5 hour; cytotoxicity at 70.5 h: concentration not given beside the values
Conditions: HepG2 cells, read-out: Inhibition

SMILES	cytotoxicity at 70.5 h
CCOc1ncccc1CNC(=O)c1cc(C)on1	-8.59%
CC(=O)NCCNC(=O)c1cnc(-c2ccc(C)cc2C)s1	-6.99%
O=C(c1cc2cc(F)ccc2[nH]1)N1CCC(Nc2ccc(F)cc2)CC1	-4.25%
CCNC(=O)C(C)NC(=O)c1cnc(-c2ccc(C)cc2C)s1 (stereo not drawn)	1.57%
O=C(Cc1c[nH]c2ccccc12)N1CCC(Nc2cccnc2)CC1	-0.82%
CCc1ccc(C(=O)N2CCN(c3nc(C)cc(OC)n3)CC2)o1	4.76%
CNC(=O)c1ccc(CNC(=O)NCCN(C)C2CCCC2)cc1	-1.36%
O=C(c1cc2ccccc2[nH]1)N1CCC(Nc2cccnn2)CC1	-6.88%
O=C(c1cc2c(F)cccc2[nH]1)N1CCC(Nc2cccnn2)CC1	0.884%
CN(c1cccnn1)C1CCN(C(=O)Cc2c[nH]c3ccccc23)CC1	-4.23%
CN1CCOC(CNCc2csc(C3CCCCC3)n2)C1 (stereo not drawn)	-13.3%
CC(O)(CN1CCC(O)CC1)c1cccc(C(F)(F)F)c1 (stereo not drawn)	-14.5%
Cc1nn(C)c(N(C)C)c1CNC(C)COc1ccc(F)cc1F (stereo not drawn)	-8.01%
Cn1cnc2c1CCN(Cc1csc(C3CCCC3)n1)C2	-9.44%
O=C(CCn1cncn1)N1CCCC1c1noc(C2CC2)n1 (stereo not drawn)	-7.06%
COCCOc1ncccc1C(=O)N1CCCC(n2ccnc2C)C1 (stereo not drawn)	-13.5%
O=C(NCCn1ccnc1)N1CCN(Cc2cccnc2)CC1	-5.29%
CCCC(=O)NC(C)c1nnc2n1CCC2 (stereo not drawn)	-15.3%
CCOc1ncccc1CNC(=O)Nc1ccccc1	16.2%
CCOc1ncccc1CNC(=O)Nc1ccc(OC)c(OC)c1	-5.39%
CN(C)c1ncccc1CNS(=O)(=O)c1cc(F)cc(F)c1	-6.43%
Cn1ccc(C(=O)NCc2ccccc2CN2CCCC2)cc1=O	16%
CN(C)c1ncccc1CNS(=O)(=O)c1cc(F)ccc1F	-11.5%
O=C(NCCn1ccnc1)N1CCCN(Cc2cccs2)CC1	-9.01%

SMILES	cytotoxicity at 70.5 h
Cn1ccc(C(=O)NCc2ccccc2CN2CCCCC2)cc1=O	-7.11%
O=C(NCCn1ccnc1)N1CCN(Cc2ccsc2)CC1	9.21%
CCOc1cccc(C(C)NCc2c(C)nn(C)c2N(C)C)c1 (stereo not drawn)	-8.02%
Fc1cccc(-n2ccc(CN3CCCC3Cn3cccn3)n2)c1 (stereo not drawn)	-14.3%
Cc1nnc(NC(=O)CN2CCc3nn(C)c(=O)cc3C2)s1	10.8%
CCc1n[nH]c(C2CN(C(=O)c3cnc(C)cn3)CCO2)n1 (stereo not drawn)	-10.6%
Cc1nc(CN(C)C2CCN(CCc3ccccn3)C2)no1 (stereo not drawn)	24.5%
Cc1cnn(CC2CCCN2CC(=O)Nc2cc(C(C)C)no2)c1 (stereo not drawn)	-7.84%
CN1CCC/C1=N\S(=O)(=O)c1ccc(NC(=O)c2ccco2)cc1	11.9%
CN1CCC/C1=N\S(=O)(=O)c1ccc(NC(=O)c2ccc(Cl)s2)cc1	-18.3%
CCn1cc(NC(=O)NCc2ccc3c(c2)OCO3)cn1	-1.53%
CCn1cc(NC(=O)NCCc2ccc3c(c2)OCCO3)cn1	-6.54%
CCN(CC)C(=O)c1ccc(-n2ncc(C#N)c2N)cc1	12.9%
Cc1cc(N2CCC(C(=O)NC3CC3)CC2)nc(-c2ccncc2)n1	-7.6%
CN(C)c1ccc(C(=O)N2CCN(Cc3cscn3)CC2)cn1	-6.24%
CC(=O)NCC1CCN(c2cc(C)nc(-c3ccncc3)n2)CC1	-10.9%
COC(=O)C1CCN(c2cc(C)nc(-c3ccncc3)n2)CC1	-8.27%
Cc1cc(N2CCC(C(=O)N(C)C)CC2)nc(-c2ccncc2)n1	3.79%
CCN(Cc1cccc2c1OCO2)C(=O)Nc1cn[nH]c1	-5.23%
Cc1ccccc1OCC(O)CN1CCC(Cn2cccn2)CC1 (stereo not drawn)	2.37%
N#Cc1ccc(OCC(O)CN2CCC(Cn3cccn3)CC2)cc1 (stereo not drawn)	-3.6%
CCC(O)CN1CCN(C(=O)Cc2cc(C)ccc2OC)CC1 (stereo not drawn)	-1.58%
CCc1ccsc1C(=O)N1CCN(CC(C)O)CC1 (stereo not drawn)	-2.62%
CCn1cc(NC(=O)Nc2ccc3c(c2)OCCO3)cn1	-5.76%

SMILES	cytotoxicity at 70.5 h
Cc1nc(CN(C)C2CCN(CCCc3ccccc3)C2)no1 (stereo not drawn)	-2.23%
COc1c(CNC2CCc3cc(F)ccc32)c(C(C)C)nn1C (stereo not drawn)	16.8%
CC(c1cccc(S(N)(=O)=O)c1)N(C)CCOC(C)(C)C (stereo not drawn)	-2.34%
CCC(O)CN1CCN(C(=O)Cc2ccc(OC)cc2OC)CC1 (stereo not drawn)	0.587%
Cc1cnn(CCNCc2nnc(-c3ccccc3)o2)c1	-1.2%
Cc1cnn(CC2CCCN2CC(=O)Nc2cc(C)no2)c1 (stereo not drawn)	-3.79%
CC(c1cccc(S(N)(=O)=O)c1)N(C)CCCOc1ccccc1 (stereo not drawn)	-4.57%
Cc1cccc(C(=O)N2CCCN(Cc3cscn3)CC2)c1	-4.03%
Cc1cnc(CN2CCC(N(C)Cc3noc(C4CC4)n3)C2)o1 (stereo not drawn)	11.7%
CCN1CCN(CCNC(=O)c2sc(C(C)C)nc2C)CC1	0.965%
CC(=O)NC1CCCN(C(=O)c2ccc(Br)cc2O)C1 (stereo not drawn)	-8.57%
COCCN(CCc1ccccc1)Cc1nc2c(cnn2C)c(=O)[nH]1	-3.4%
CCN(CCc1ccccc1)Cn1nc(C)c2c(C)onc2c1=O	-1.87%
O=C(c1cnc(-c2cccs2)s1)N1CCCC(n2cccn2)C1 (stereo not drawn)	-4.26%
CCN1CCN(C(=O)c2cnn(-c3ccccc3Cl)c2)CC1	-8.2%
Cc1cccc(-c2[nH]ncc2CNCC2CCN(CC(C)O)CC2)c1 (stereo not drawn)	-4.28%
Cc1nc(CNC(=O)NCCc2ccc(N(C)C)cc2)cs1	-0.758%
c1csc(-c2nc(CN3CCOC(Cn4cccn4)C3)co2)c1 (stereo not drawn)	-8.17%
O=C(c1ccccc1N1CCOCC1)N1CCCC(n2cccn2)C1 (stereo not drawn)	1.3%
Cc1cnn(CCC(=O)N2CCC(Nc3cccnn3)CC2)c1	18.3%
CCc1nccn1C1CCCN(C(=O)c2cn3cccnc3n2)C1 (stereo not drawn)	-11.4%
Cc1nc(CN2CCOC(CNc3cccnn3)C2)cs1 (stereo not drawn)	2.31%
CCc1ccc(C(=O)O)cc1S(=O)(=O)Nc1ccc(F)c(C#N)c1	6.85%
CCOc1cccc2c1OCC(C(=O)NS(=O)(=O)c1ccc(C)s1)=C2	-4.35%

SMILES	cytotoxicity at 70.5 h
CC(C)c1nccn1C1CCCN(C(=O)c2cccc3c2OCO3)C1 (stereo not drawn)	8.22%
O=C(Cc1ccc2c(c1)OCCO2)NCCc1nnc2n1CCC2	12.2%
O=C(NCCN1CCCCCC1=O)c1ccn(-c2ccc(F)cc2)n1	-6.58%
CCOc1ccc(S(=O)(=O)NC(=O)CCC2CCCO2)cc1 (stereo not drawn)	-10.5%
Cc1csc(N2CCN(C(=O)CCNc3ncccn3)CC2)n1	-11.3%
Cc1csc(N2CCN(C(=O)Cc3ccc(C)s3)CC2)n1	3.83%
Cc1nc(-c2ccccc2)n(CC(=O)NCC(C)C)n1	-3.55%
O=C(c1ccc2c(c1)OCO2)N1CCCC(n2cccn2)C1 (stereo not drawn)	-6.41%
CC(O)CN1CCC(CNCc2cccc(C(N)=O)c2)CC1 (stereo not drawn)	-4%
c1cnc(-c2nc(CN3CCCC(Cn4cncn4)C3)cs2)nc1 (stereo not drawn)	-11%
Cc1csc(C2CCCN(C(=O)c3cc(Cl)c[nH]3)C2)n1 (stereo not drawn)	-0.903%
O=C(c1cccc(N2CCCC2=O)c1)N1CCCC(n2cncn2)C1 (stereo not drawn)	-8.04%
Cc1csc(C2CCCN(C(=O)c3cnc[nH]3)C2)n1 (stereo not drawn)	-0.708%
CCCn1nc2c(cc1=O)CN(CCS(C)(=O)=O)CC2	9.12%
CCOc1cc(C)ccc1NC(=O)N(C)Cc1cnn(C)c1	-3.49%
COc1cc(CNCc2c(C)nn(C)c2N(C)C)ccn1	-1.56%
CCN1CCC(NC(=O)CN2CCCC2Cn2nc(C)cc2C)CC1 (stereo not drawn)	-9.53%
O=C(CCN1CCCC1C1CCCCC1)N1CCc2sccc2C1 (stereo not drawn)	2.92%
COCCOc1ccccc1C(=O)N1CCCCC1c1nccs1 (stereo not drawn)	50.2%
CCCn1nc2c(cc1=O)CN(CCCN1CCCC1=O)CC2	7.69%
COCc1cccc(C(=O)N2CCCCC2c2nccs2)c1 (stereo not drawn)	-8.81%
CCCn1nc2c(cc1=O)CN(CCCS(N)(=O)=O)CC2	3.74%
O=C(CCC(=O)N1CCCC1c1cccs1)N1CCc2sccc2C1 (stereo not drawn)	2.92%
CC(NC(=O)CCCOc1ccccc1)c1nnc2n1CCCCC2 (stereo not drawn)	-20.9%

SMILES	cytotoxicity at 70.5 h
CCc1cnc(CN2CCCC2c2noc(C3CC3)n2)o1 (stereo not drawn)	-11.3%
CC(C)c1nc2n(n1)CC(NCc1nnc(C(C)C)o1)CC2 (stereo not drawn)	-19.6%
COc1cccc(COCC(=O)N2CCCC(n3ccnc3)C2)c1 (stereo not drawn)	-11.9%
FC(F)(F)Cc1noc(CN2CCCC2c2noc(C3CC3)n2)n1 (stereo not drawn)	-8.5%
O=C(COCc1ccccc1)N1CCCC(n2cncn2)C1 (stereo not drawn)	-20.7%
COc1cccc(C(=O)N2CCCC(c3cc(C)[nH]n3)C2)c1OC (stereo not drawn)	-17.6%
Cc1cnn(CC2CCCCN2Cc2nc(-c3ccoc3)no2)c1 (stereo not drawn)	-6.01%
COc1cc(C(=O)N2CCCC(CNS(C)(=O)=O)C2)cc(OC)c1C (stereo not drawn)	-13.5%
O=C(NCc1nncn1-c1ccccc1)C1CC(=O)N(CC2CC2)C1 (stereo not drawn)	-18.1%
COc1ccc(CNC(=O)Nc2cccnc2N2CCCC2)cc1O	-8.02%
Cc1ccc(-c2ncc(C(=O)NCCNC(=O)C(C)C)s2)c(C)c1	-8.72%
CCN1CCN(CC(O)c2ccc(F)cc2)CC1 (stereo not drawn)	-14.7%
O=C1CCC(C(=O)NCc2nncn2-c2ccccc2)CN1 (stereo not drawn)	-12.6%
CC(NC(=O)Nc1cc(F)ccc1N1CCCCC1)c1nncn1C (stereo not drawn)	-4.36%
Cc1nn(C)c(C)c1C(C)NC(=O)Nc1cccnc1N1CCCC1 (stereo not drawn)	-15.8%
CCOCC(O)CN1CCN(C(=O)CC(C)(C)C)CC1 (stereo not drawn)	-18.5%
CC(C)c1nc2n(n1)CC(NCc1nnc(-c3ccco3)o1)CC2 (stereo not drawn)	-11.9%
N#Cc1ccccc1OCCN1CCCC1Cn1cccn1 (stereo not drawn)	-4.78%
Cn1nc2c(cc1=O)CN(Cc1coc(-c3cccs3)n1)CC2	-7.48%
Cn1ncc2c1CCCC2NCc1cccc(C(F)(F)F)c1 (stereo not drawn)	-5.81%
Cc1noc(C(C)C)c1C(=O)NCCCN1CCNCC1	-7.14%
COc1c(CNC2CCc3c(F)cccc32)c(C)nn1C (stereo not drawn)	-7.24%

Reference: ChEMBL document CHEMBL3507680, “University of Dundee, Gates Library screen for HepG2 cell viability”
